# According to patent US8889377B2, “GPCR comprising an IC2 insertion” (ConfometRx, Inc., priority 2010, dated 2014):
# Tested on: mGluR5 and Rock10 (mGluR5-T4 lysozyme fusion protein of FIG. 3)
# Assay: 3H-MPEP ligand binding in membranes of transfected HEK293 cells
# Set-up: species or system human
# Conditions: HEK293 cell membranes; ^3H-MPEP radioligand; wild-type mGluR5 vs fusion protein Rock10 (FIG. 6)
# Procedure: HEK293 cells were cultured on plastic dishes at 37° C. with 5% CO2 in Dulbecco's modified Eagle's medium (Cellgro) with 5% fetal bovine serum. For an individual expression experiment, cells at confluency were split, and approximately 100,000 cells were used to seed glass cover slips in the same medium. After 2 d, cells are transfected with the addition of 1 μg of a given pCDNA3-receptor plasmid and 3 μl of Fugene 6 reagent (Roche). 48 h after transfection, cells were harvested and membranes prepared for ligand binding analysis. ^3H-MPEP (a negative allosteric modulator that binds to the transmembrane domains of mGluR5) was used to detect functional mGluR5 in HEK293 cell membranes (see FIG. 6).
smiles,measurement,value
Cc1cccc(C#Cc2ccccc2)n1 [MPEP],affinity of MPEP for mGluR5 compared with Rock10,same affinity for mGluR5 as Rock10
